Data on three molecules can be found in US9387219B2, “Edible composition” (Conopco, Inc., priority 2011, dated 2016).

Values joined by “and” are separate entries in the source; they are usually repeats but may differ in a detail not shown here. Equal values may be shown once.

Series [1] deals with T1, Human Lactase Phloridzin Hydrolase (hLPH) (Homo sapiens, UniProt P09848).
T1 construct: endogenous in cells; host or cells: Caco-2 cells held at confluence for 21 days; trans-membrane protein extract passed through a G-25 Sephadex spin column
T1 sequence (P09848 869-1927): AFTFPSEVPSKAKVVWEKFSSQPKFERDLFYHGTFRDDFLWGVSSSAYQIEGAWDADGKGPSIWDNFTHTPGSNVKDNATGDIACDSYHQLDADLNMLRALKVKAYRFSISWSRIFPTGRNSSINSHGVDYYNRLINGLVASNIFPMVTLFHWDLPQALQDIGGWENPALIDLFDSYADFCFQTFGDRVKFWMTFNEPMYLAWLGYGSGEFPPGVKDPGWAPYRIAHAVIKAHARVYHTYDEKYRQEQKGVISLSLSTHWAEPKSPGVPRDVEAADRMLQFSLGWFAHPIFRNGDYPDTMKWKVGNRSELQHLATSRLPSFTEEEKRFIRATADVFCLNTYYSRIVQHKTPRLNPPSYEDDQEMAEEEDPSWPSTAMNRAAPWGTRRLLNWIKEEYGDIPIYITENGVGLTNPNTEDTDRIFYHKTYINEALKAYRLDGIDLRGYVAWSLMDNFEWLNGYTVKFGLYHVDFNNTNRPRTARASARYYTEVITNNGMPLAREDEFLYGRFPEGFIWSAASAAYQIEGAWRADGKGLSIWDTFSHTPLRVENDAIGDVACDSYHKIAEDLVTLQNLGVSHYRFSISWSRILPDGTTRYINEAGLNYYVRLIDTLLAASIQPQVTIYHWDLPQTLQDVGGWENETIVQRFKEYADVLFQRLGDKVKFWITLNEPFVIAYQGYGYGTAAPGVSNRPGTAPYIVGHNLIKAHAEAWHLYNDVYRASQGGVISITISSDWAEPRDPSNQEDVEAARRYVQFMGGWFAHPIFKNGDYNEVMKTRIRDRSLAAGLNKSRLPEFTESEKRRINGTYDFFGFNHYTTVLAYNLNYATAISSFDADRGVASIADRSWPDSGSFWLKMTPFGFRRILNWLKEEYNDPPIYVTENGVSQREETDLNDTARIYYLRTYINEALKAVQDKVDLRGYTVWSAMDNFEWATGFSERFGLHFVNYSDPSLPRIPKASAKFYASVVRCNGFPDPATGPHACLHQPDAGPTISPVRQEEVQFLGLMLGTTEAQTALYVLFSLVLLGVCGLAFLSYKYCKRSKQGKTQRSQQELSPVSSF
In words: hLPH enzyme assay (glucoside hydrolysis by LPH extract from Caco-2 cells). The settings on record: glucoside 1.0 mM, 1 hour at 37° C.; for μM substrate hydrolysed/hr: 10% LPH extract (Caco2 cell-line), pH 6.0; for Resistance to hydrolysis-% Q4G: relative to Q4G, 10% LPH extract. It is filed as in vitro ADME. The procedure:
Extracts were stored at −80° C. in 50 ul aliquots. Prior to use extracts were semi-purified, removing low molecular weight interfering components by passing through a small G-25 Sephadex 50-100 μl spin-column (Roche or ThermoFisher Scientific). 10 μl of semi-purified LPH extract was added to 90 μl of glucoside (1.0 mM final concentration) in 0.1 M maleate (Sigma) buffer, pH 6.0 and incubated for 60 minutes at 37° C. The reaction was terminated by addition of 200 μl 2M Tris (Sigma), pH 8.0. […] This allowed a full recovery of glucose which was measured using the Amplex® Red Glucose/Glucose Oxidase Assay. […] Fluorescence was read on a SpectraMax Gemini EM SN plate reader (Molecular Devices) (excitation. 530 nm and emission at 590 nm).

The target of series [2] is T2, GLUT2 (Homo sapiens, UniProt P11168).
T2 construct: endogenous in cells; host or cells: differentiated Caco-2 cell monolayers (ATCC)
T2 sequence (P11168 1-524): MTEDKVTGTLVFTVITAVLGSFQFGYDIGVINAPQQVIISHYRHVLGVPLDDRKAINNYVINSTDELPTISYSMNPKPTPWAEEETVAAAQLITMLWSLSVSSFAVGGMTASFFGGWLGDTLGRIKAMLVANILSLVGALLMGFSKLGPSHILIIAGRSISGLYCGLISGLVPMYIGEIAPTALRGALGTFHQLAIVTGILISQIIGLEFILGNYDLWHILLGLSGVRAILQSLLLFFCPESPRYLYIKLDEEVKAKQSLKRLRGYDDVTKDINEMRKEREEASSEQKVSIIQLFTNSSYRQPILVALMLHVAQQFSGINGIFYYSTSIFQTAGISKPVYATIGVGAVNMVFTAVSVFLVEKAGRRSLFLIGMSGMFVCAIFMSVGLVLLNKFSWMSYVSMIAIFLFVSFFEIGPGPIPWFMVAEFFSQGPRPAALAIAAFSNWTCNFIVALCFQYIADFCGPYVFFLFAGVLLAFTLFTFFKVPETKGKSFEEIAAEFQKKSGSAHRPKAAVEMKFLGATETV
The experiment in a line: Glucose transport inhibitor cell screening assay, 25 mM D-glucose for 30 minutes (GLUT2 inhibition). Format: cell-based. Particulars: differentiated Caco-2 monolayer, 30 minutes, active at 150 uM. The procedure:
(§1) Human epithelial colorectal adenocarcinoma (Caco-2) cells were obtained from the American Type Culture Collection (ATCC) and cultured in Growth Medium consisting of Dulbecco's modified Eagle's medium (containing Glutamax-1, 4.5 g/L D-glucose and 25 mM 4-(2-hydroxyethyl)-1-piperazine ethanesulphonic acid (Hepes) (Invitrogen)), 10% foetal bovine serum (Sigma), 1% non-essential amino acids (Invitrogen) and 1 mM sodium pyruvate (Sigma)). The cells were routinely passaged at approximately 80% confluence using TrypLE™ Express Stable Trypsin-Like Enzyme (Invitrogen) to detach the cells, and seeded at approximately 114 cells per mm^2 in fresh tissue culture flasks. Only cells between the passage numbers 45 and 49 were used for experiments.
(§2) Corning® HTS Transwell® 96 well permeable insert supports (Sigma) were collagen coated with 40 μl of 50 μg/ml rat tail collagen type I (BD Biosciences) in 0.02 M acetic acid for one hour at room temperature under sterile conditions. The inserts were washed twice in phosphate buffered saline (PBS (Invitrogen)) and the Caco-2 cells seeded into the inserts at 9.6×10^5 cell/ml (75 μl per insert) in Growth Medium and 30 ml of Growth Medium added to the feeder plate below. The cells were left to attach to the collagen matrix and form monolayers over 48 hours at 37° C., 5% CO2. Both inserts and feeder plate were washed in PBS and the cells incubated with BD Entero-STIM™ Enterocyte Differentiation Medium containing MITO+™ Serum Extender solution (both BD Biosciences), 75 μl per insert and 30 ml in the feeder plate, for a further 48 hours at 37° C., 5% CO2.
(§3) Differentiated cell monolayers were washed gently in Dulbecco's Phosphate Buffered Saline containing CaCl2 and MgCl2 (PBS(+) (Invitrogen)) and the inserts transferred to a new Corning® HTS Transwell®-96 well receiver plate (Sigma). The cells were incubated with fresh PBS(+) (75 μl per insert and 225 μl per well) for 60 minutes at 37° C., 5% CO2. The PBS(+) was gently aspirated and replaced with 75 μl per insert of either 5 mM D-glucose (Sigma)±test active or 25 mM D-glucose±test active in triplicate and 225 μl per well of PBS(+) quickly added to each well. The 5 mM glucose wells and the 25 mM glucose wells were incubated at 37° C., 5% CO2 for 15 minutes and 30 minutes, respectively. Details of all the actives tested are found in table 1. The cell inserts were transferred to a new receiver plate, the supernatant gently aspirated from the cells and replaced with 100 μl of 100 μM of Lucifer Yellow (Sigma) solution to confirm the integrity of the monolayers. 225 μl of PBS(+) was added to each well and incubated at 37° C., 5% CO2 for 1 hour. The cell inserts were then discarded and the permeability of the membranes to Lucifer Yellow checked by measuring the fluorescence of the samples at 485 nm (excitation) and 530 nm (emission) on a Spectramax Gemini EM fluorescence microplate reader.
(§4) The amount of glucose transported across the cell monolayers was measured using a glucose assay based on Invitrogen's Amplex Red Glucose/Glucose oxidase Assay Kit. Briefly, 50 μl of each test sample was transferred to a black sided/clear bottom 96-well plate (Greiner Bio-One) to which 100 μl of reaction buffer (0.5 μl 10 mM Ampliflu Red, 1 μl 10 U/ml Horse Radish peroxidase, 1 μl 100 U/ml glucose oxidase and 97.5 μl PBS (all Sigma)) was added. After 10 minutes incubation at room temperature, the fluorescence of the samples were measured at 530 nm (excitation) and 590 nm (emission) on a Spectramax Gemini EM fluorescence microplate reader and the glucose concentration extrapolated from a standard curve.
(§5) At higher D-glucose concentrations, the SGLT1 transporter becomes saturated and consequently the majority of glucose transport across the monolayer is driven by the low affinity, high capacity GLUT2 transporter that is targeted to the apical membrane only following an initial SGLT1-dependent transport of glucose.
A general note: Caco-2 monolayers are a common model of the intestinal barrier.

Series [3] addresses T3, SGLT1 (Homo sapiens, UniProt P13866).
T3 construct: endogenous in cells; host or cells: differentiated Caco-2 cell monolayers (ATCC)
T3 sequence (P13866 1-664): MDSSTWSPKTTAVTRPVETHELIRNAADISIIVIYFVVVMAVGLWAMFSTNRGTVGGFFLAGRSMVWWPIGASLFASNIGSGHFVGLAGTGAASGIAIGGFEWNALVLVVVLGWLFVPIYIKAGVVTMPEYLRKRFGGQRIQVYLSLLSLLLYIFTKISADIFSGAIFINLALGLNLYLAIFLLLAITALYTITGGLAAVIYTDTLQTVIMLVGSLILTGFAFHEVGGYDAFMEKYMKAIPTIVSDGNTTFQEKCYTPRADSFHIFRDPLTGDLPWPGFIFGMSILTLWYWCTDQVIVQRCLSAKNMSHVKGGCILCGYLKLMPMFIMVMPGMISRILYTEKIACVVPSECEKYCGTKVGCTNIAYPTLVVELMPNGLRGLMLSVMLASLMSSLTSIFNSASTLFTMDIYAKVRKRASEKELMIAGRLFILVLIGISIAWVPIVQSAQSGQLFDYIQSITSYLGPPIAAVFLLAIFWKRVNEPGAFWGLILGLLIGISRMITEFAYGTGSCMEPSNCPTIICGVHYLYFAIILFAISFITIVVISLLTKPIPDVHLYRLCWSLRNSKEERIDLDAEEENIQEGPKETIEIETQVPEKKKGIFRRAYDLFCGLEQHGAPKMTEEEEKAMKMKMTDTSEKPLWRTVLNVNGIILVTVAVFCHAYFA
The experiment in a line: Glucose transport inhibitor cell screening assay, 5 mM D-glucose for 15 minutes (SGLT1 inhibition). The settings on record: for SGLT1 inhibitory activity (in words): Caco-2 cell model; for SGLT1 inhibitory activity (in words) / % Glucose Transport inhibition 5 mM: 5 mM D-glucose; for Class (assigned class of transporter inhibited): assigned from % inhibition at 5 mM and 25 mM D-glucose in Caco-2 cells; for % Glucose Transport inhibition 5 mM: differentiated Caco-2 monolayer, 15 minutes, active at 300 uM. It is filed as cell-based. The procedure: as §1, §2, §3, §4, §5

In the case of `O=c1c(O)c(-c2ccc(O)cc2)oc2cc(O[C@@H]3O[C@H](CO)[C@@H](O)[C@H](O)[C@H]3O)cc(O)c12` [Kaempferol 7-O-glucoside], in series [1], the μM substrate hydrolysed/hr is 0.618 μM substrate hydrolysed/hr and the “Resistance to hydrolysis-% Q4G” value is reported as 80.05%. Further, in series [2], the “% Glucose Transport inhibition 25 mM” value was determined as 14.42%. In addition, in series [3], the “SGLT1 inhibitory activity (in words)” value is given as “inhibition of SGLT1”, the “Class (assigned class of transporter inhibited)” value was “SGLT1” and the “% Glucose Transport inhibition 5 mM” value was 43.89%.
For `O=c1cc(-c2ccc(O)c(O)c2)oc2cc(O[C@@H]3O[C@H](CO)[C@@H](O)[C@H](O)[C@H]3O)cc(O)c12` [Luteolin-7-glucoside], in series [1], the μM substrate hydrolysed/hr is on record as 0.814 μM substrate hydrolysed/hr and the “Resistance to hydrolysis-% Q4G” value was 73.72%. The “% Glucose Transport inhibition 25 mM” value in series [2] was 17.03%. In series [3], the “SGLT1 inhibitory activity (in words)” value is on record as “inhibition of SGLT1”, the “Class (assigned class of transporter inhibited)” value is recorded as “SGLT1” and the “% Glucose Transport inhibition 5 mM” value is on record as 44.09%.
Consider `O=C1CC(c2ccc(O)cc2)Oc2cc(O[C@@H]3O[C@H](CO)[C@@H](O)[C@H](O)[C@H]3O)cc(O)c21` (some centres unmarked) [Naringenin-7-O-glucoside], for which the μM substrate hydrolysed/hr in series [1] is on record as 1.564 μM substrate hydrolysed/hr. The “Resistance to hydrolysis-% Q4G” value in series [1] (listed as N7G) is 49.5% and 49.52%. The “% Glucose Transport inhibition 25 mM” value in series [2] turned out to be 0.06%. Further, in series [3], the “SGLT1 inhibitory activity (in words)” value is on record as “inhibition of SGLT1” and the “Class (assigned class of transporter inhibited)” value was “SGLT1”.
